Reference: patent US20250122183A1 (Pfizer Inc., priority 2023, published 2025)
Where two headings read alike, the source gives them in different places.

Columns and labels:
Type in all cases: biochemical
[1] = target: KAT6A Full length enzyme (Homo sapiens (Human), UniProt Q92794); assay: KAT6A assay (SAMDI-MS acetylation of H3 1-21 peptide); details: replicate number in parentheses
[2] = target: KAT7+JADE1+EAF6+ING5 4 protein complex (Homo sapiens (Human), UniProt O95251); assay: KAT7 JADE1 assay (SAMDI-MS acetylation of H3 1-21 peptide); details: replicate number in parentheses
[3] = target: KAT8 Full length enzyme (Homo sapiens (Human), UniProt Q9H7Z6); assay: KAT8 assay (SAMDI-MS acetylation of H3 1-21 peptide); details: replicate number in parentheses
Chain of KAT8 Full length enzyme (Q9H7Z6 whole entry): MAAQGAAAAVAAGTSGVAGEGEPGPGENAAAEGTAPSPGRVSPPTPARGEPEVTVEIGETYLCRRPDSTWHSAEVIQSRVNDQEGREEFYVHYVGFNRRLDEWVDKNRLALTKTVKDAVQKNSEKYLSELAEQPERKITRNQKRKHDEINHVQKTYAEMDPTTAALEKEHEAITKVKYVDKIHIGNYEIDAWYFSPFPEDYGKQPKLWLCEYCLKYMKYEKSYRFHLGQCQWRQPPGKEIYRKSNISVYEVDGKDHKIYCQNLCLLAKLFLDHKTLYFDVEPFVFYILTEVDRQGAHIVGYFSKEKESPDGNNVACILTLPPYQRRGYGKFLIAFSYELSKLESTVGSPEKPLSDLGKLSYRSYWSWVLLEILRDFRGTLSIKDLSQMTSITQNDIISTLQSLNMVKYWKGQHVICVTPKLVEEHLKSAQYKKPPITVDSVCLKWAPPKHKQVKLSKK

[4] = target: KAT5 Full length enzyme (Homo sapiens (Human), UniProt Q92993); assay: KAT5 assay (SAMDI-MS acetylation of H4 1-21 peptide); details: Morrison equation fit; replicate number in parentheses; read-out: KAT5 Ki (nM) (replicate number)
Chain of KAT5 Full length enzyme (Q92993 whole entry): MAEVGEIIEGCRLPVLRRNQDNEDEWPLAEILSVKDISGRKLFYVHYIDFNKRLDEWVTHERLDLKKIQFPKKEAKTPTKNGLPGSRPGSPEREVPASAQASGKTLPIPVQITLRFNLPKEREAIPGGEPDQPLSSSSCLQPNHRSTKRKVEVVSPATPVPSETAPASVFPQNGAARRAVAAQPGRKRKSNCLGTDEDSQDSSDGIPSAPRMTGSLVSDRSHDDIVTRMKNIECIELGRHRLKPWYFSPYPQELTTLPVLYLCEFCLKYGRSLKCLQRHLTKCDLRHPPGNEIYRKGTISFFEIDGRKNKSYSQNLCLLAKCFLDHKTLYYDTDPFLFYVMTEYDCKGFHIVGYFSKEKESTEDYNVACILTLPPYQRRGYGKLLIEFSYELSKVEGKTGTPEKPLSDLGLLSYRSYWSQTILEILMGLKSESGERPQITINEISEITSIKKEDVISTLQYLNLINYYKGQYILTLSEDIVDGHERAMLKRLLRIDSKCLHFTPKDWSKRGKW

[5] = Morrison equation fit, read-out: KAT6A Ki (nM) (replicate number)
[6] = Morrison equation fit, read-out: KAT7 JADE1 Ki (nM) (replicate number)
[7] = Morrison equation fit, read-out: KAT8 Ki (nM) (replicate number)
[8] = read-out: KAT6A Ki (nM) (replicate)
[9] = read-out: KAT7 JADE1 Ki (nM) (replicate)
[10] = read-out: KAT8 Ki (nM) (replicate)

Chain of KAT6A Full length enzyme (Q92794 other isoform, or with tags, fused parts or gaps): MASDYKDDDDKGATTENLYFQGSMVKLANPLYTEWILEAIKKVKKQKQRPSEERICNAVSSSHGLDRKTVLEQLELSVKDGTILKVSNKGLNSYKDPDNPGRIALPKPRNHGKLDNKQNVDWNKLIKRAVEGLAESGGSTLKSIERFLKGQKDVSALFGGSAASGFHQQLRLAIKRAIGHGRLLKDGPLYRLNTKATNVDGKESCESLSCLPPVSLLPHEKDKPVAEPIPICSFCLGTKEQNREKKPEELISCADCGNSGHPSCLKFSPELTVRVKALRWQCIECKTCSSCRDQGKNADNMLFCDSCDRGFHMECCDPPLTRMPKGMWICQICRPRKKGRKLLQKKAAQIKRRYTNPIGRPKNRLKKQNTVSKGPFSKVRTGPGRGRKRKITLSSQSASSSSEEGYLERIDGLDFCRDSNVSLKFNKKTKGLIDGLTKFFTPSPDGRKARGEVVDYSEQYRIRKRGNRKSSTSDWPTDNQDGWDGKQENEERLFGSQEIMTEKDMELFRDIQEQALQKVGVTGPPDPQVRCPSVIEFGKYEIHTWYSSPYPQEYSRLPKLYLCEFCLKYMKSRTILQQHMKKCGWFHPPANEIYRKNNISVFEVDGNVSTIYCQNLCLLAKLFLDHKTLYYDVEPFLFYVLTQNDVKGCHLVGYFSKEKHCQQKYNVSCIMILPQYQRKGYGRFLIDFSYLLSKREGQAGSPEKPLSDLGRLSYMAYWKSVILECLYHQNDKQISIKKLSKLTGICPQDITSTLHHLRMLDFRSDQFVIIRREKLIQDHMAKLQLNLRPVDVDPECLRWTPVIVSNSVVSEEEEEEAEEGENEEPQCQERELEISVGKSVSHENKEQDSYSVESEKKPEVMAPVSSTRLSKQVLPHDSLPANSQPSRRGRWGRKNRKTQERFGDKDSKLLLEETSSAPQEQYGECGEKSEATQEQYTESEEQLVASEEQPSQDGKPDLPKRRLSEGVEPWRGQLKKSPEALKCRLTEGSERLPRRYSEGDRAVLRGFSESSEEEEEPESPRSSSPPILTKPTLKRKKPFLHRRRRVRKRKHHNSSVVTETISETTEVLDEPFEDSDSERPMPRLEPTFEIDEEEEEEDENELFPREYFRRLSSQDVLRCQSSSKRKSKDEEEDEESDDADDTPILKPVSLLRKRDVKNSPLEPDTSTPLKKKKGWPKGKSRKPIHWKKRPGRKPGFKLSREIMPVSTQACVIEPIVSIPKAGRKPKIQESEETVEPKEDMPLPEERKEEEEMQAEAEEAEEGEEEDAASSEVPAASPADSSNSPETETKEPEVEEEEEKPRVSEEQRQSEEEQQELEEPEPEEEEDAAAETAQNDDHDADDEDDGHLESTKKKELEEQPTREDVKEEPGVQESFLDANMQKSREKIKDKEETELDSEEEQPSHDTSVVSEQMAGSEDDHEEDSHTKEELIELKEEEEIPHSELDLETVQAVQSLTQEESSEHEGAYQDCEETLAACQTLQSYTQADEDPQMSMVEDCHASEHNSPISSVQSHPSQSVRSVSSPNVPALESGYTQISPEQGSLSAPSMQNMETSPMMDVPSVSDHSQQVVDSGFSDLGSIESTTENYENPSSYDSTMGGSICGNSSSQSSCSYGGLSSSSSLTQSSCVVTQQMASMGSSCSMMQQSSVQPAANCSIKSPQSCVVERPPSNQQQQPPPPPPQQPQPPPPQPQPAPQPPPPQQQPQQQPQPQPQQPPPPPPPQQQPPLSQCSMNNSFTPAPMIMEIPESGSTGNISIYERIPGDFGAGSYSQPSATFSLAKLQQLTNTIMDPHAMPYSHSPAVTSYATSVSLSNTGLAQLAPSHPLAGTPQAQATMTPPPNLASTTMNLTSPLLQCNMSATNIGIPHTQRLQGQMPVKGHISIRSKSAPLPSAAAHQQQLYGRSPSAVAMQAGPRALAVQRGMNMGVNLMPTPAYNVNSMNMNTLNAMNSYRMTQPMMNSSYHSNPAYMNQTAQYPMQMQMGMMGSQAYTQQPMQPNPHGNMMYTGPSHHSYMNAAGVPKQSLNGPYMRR

## COc1cc2c(NS(=O)(=O)c3c(OC)cccc3OC)noc2cc1Nc1cc([C@H]2CC2(F)F)[nH]n1 (single isomer, unassigned) [Example 68, N-(6-{[5-(2,2-difluorocyclopropyl)-1H-pyrazol-3-yl]amino}-5-methoxy-1,2-benzoxazol-3-yl)-2,6-dimethoxybenzene-1-sulfonamide]
[1]; [5]
  Ki: 1.2 nM
[2]; [6]
  Ki: 16.8 nM
[3]; [7]
  Ki: 4130 nM
[4]
  Ki: 39.3 nM

## COc1cc2c(NS(=O)(=O)c3c(OC)cccc3OC)noc2cc1Nc1cc([C@@H]2CC2(F)F)[nH]n1 (single isomer, unassigned) [Example 69, N-(6-{[5-(2,2-difluorocyclopropyl)-1H-pyrazol-3-yl]amino}-5-methoxy-1,2-benzoxazol-3-yl)-2,6-dimethoxybenzene-1-sulfonamide]
[1]; [5]
  Ki: > 3290 nM
[2]; [6]
  Ki: > 29000 nM
[3]; [7]
  Ki: > 13000 nM
[4]
  Ki: > 50000 nM

## COc1cc2c(NS(=O)(=O)c3c(OC)cccc3OC)noc2cc1Nc1cc([C@H](C)O)n[nH]1 (single isomer, unassigned) [Example 86, N-(6-{[3-(1-hydroxyethyl)-1H-pyrazol-5-yl]amino}-5-methoxy-1,2-benzoxazol-3-yl)-2,6-dimethoxybenzene-1-sulfonamide]
[1]; [5]
  Ki: 8.9 nM
[2]; [6]
  Ki: 552 nM
[3]; [7]
  Ki: > 13000 nM
[4]
  Ki: 1280 nM

## COc1cc2c(NS(=O)(=O)c3c(OC)cccc3OC)noc2cc1Nc1cc([C@@H](C)O)n[nH]1 (single isomer, unassigned) [Example 87, N-(6-{[3-(1-hydroxyethyl)-1H-pyrazol-5-yl]amino}-5-methoxy-1,2-benzoxazol-3-yl)-2,6-dimethoxybenzene-1-sulfonamide]
[1]; [5]
  Ki: 23.5 nM
[2]; [6]
  Ki: 1230 nM
[3]; [7]
  Ki: > 13000 nM
[4]
  Ki: 1800 nM

## COc1cc2c(NS(=O)(=O)c3c(OC)cccc3OC)noc2cc1Nc1cc2n(n1)CC[C@@H]2C (single isomer, unassigned) [Example 89, 2,6-dimethoxy-N-(5-methoxy-6-{[4-methyl-5,6-dihydro-4H-pyrrolo[1,2-b]pyrazol-2-yl]amino}-1,2-benzoxazol-3-yl)benzene-1-sulfonamide]
[1]; [5]
  Ki: 3 nM
[2]; [6]
  Ki: 39.3 nM
[3]; [7]
  Ki: > 12200 nM
[4]
  Ki: 168 nM

## COc1cc2c(NS(=O)(=O)c3c(OC)cccc3OC)noc2cc1Nc1cc2n(n1)CC[C@H]2C (single isomer, unassigned) [Example 90, 2,6-dimethoxy-N-(5-methoxy-6-{[4-methyl-5,6-dihydro-4H-pyrrolo[1,2-b]pyrazol-2-yl]amino}-1,2-benzoxazol-3-yl)benzene-1-sulfonamide]
[1]; [5]
  Ki: 3.4 nM
[2]; [6]
  Ki: 62.4 nM
[3]; [7]
  Ki: > 13000 nM
[4]
  Ki: 251 nM

## COc1cc2c(NS(=O)(=O)c3cc4c(cc3OC)CCCC4)noc2cc1Nc1cc[nH]n1 [Example 05, 3-Methoxy-N-{5-methoxy-6-[(1H-pyrazol-3-yl)amino]-1,2-benzoxazol-3-yl}-5,6,7,8-tetrahydronaphthalene-2-sulfonamide]
[1]; [5]
  Ki: 0.5 nM
[3]; [7]
  Ki: 290 nM
[4]
  Ki: 13.6 nM

## COc1cc2c(NS(=O)(=O)c3cc(C)c(C)cc3OC)noc2cc1Nc1cc[nH]n1 [Example 25, 2-methoxy-N-{5-methoxy-6-[(1H-pyrazol-3-yl)amino]-1,2-benzoxazol-3-yl}-4,5-dimethylbenzene-1-sulfonamide]
[1]; [5]
  Ki: 0.8 nM
[3]; [7]
  Ki: 446 nM
[4]
  Ki: 121 nM

## COc1cc2c(NS(=O)(=O)c3c(OC)cc(CN(C)C)cc3OC)noc2cc1Nc1cc(C2CC2)n[nH]1 [Example 144, N-{6-[(3-cyclopropyl-1 H-pyrazol-5-yl)amino]-5-methoxy-1,2-benzoxazol-3-yl}-4-[(dimethylamino)methyl]-2,6-dimethoxybenzene-1-sulfonamide]
[1]; [5]
  Ki: 1.8 nM
[2]; [6]
  Ki: 10.2 nM
[3]; [7]
  Ki: 2780 nM

## COc1cc2c(NS(=O)(=O)c3c(OC)cc([C@@H]4COCCO4)cc3OC)noc2cc1Nc1cc(C2CC2)n[nH]1 [Example 145]
[1]; [5]
  Ki: 1.8 nM
[2]; [6]
  Ki: 9.2 nM
[3]; [7]
  Ki: 1510 nM

## COc1cc2c(NS(=O)(=O)c3c(OC)cc(-c4nccc(C)n4)cc3OC)noc2cc1Nc1cc(C2CC2)n[nH]1 [Example 214, N-{6-[(3-cyclopropyl-1H-pyrazol-5-yl)amino]-5-methoxy-1,2-benzoxazol-3-yl}-2,6-dimethoxy-4-(4-methylpyrimidin-2-yl)benzene-1-sulfonamide]
[1]; [5]
  Ki: 0.7 nM
[2]; [6]
  Ki: 4.3 nM
[3]; [7]
  Ki: 1720 nM

## COc1cc2c(NS(=O)(=O)c3c(OC)cc(-c4ccc(C)cn4)cc3OC)noc2cc1Nc1cc(C2CC2)n[nH]1 [Example 215, N-{6-[(3-cyclopropyl-1H-pyrazol-5-yl)amino]-5-methoxy-1,2-benzoxazol-3-yl}-2,6-dimethoxy-4-(5-methylpyridin-2-yl)benzene-1-sulfonamide]
[1]; [5]
  Ki: 0.4 nM
[2]; [6]
  Ki: 4.2 nM
[3]; [7]
  Ki: 994 nM

## COc1cc2c(NS(=O)(=O)c3c(OC)cc(-c4cccn(C)c4=O)cc3OC)noc2cc1Nc1cc(C2CC2)n[nH]1 [Example 221, N-{6-[(3-cyclopropyl-1H-pyrazol-5-yl)amino]-5-methoxy-1,2-benzoxazol-3-yl}-2,6-dimethoxy-4-(1-methyl-2-oxo-1,2-dihydropyridin-3-yl)benzene-1-sulfonamide]
[1]; [5]
  Ki: 0.7 nM
[2]; [6]
  Ki: 6.2 nM
[3]; [7]
  Ki: 1490 nM

## CCc1cc(Nc2cc3onc(NS(=O)(=O)c4c(OC)cc(-c5cccc(C)n5)cc4OC)c3cc2OC)[nH]n1 [Example 231, N-{6-[(3-ethyl-1H-pyrazol-5-yl)amino]-5-methoxy-1,2-benzoxazol-3-yl}-2,6-dimethoxy-4-(6-methylpyridin-2-yl)benzene-1-sulfonamide]
[1]; [5]
  Ki: 1.1 nM
[2]; [6]
  Ki: 8.8 nM
[3]; [7]
  Ki: 859 nM

## CCc1cc(Nc2cc3onc(NS(=O)(=O)c4c(OC)cc(-c5cnc(C)cn5)cc4OC)c3cc2OC)[nH]n1 [Example 232, N-{6-[(3-ethyl-1H-pyrazol-5-yl)amino]-5-methoxy-1,2-benzoxazol-3-yl}-2,6-dimethoxy-4-(5-methylpyrazin-2-yl)benzene-1-sulfonamide]
[1]; [5]
  Ki: 0.6 nM
[2]; [6]
  Ki: 6.4 nM
[3]; [7]
  Ki: 2620 nM

## CCc1cc(Nc2cc3onc(NS(=O)(=O)c4c(OC)cc(-c5nccc(C)n5)cc4OC)c3cc2OC)[nH]n1 [Example 233, N-{6-[(3-ethyl-1H-pyrazol-5-yl)amino]-5-methoxy-1,2-benzoxazol-3-yl}-2,6-dimethoxy-4-(4-methylpyrimidin-2-yl)benzene-1-sulfonamide]
[1]; [5]
  Ki: 1.7 nM
[2]; [6]
  Ki: 8.9 nM
[3]; [7]
  Ki: 2000 nM

## CCc1cc(Nc2cc3onc(NS(=O)(=O)c4c(OC)cc(-c5ncc(C)cn5)cc4OC)c3cc2OC)[nH]n1 [Example 234, N-{6-[(3-ethyl-1H-pyrazol-5-yl)amino]-5-methoxy-1,2-benzoxazol-3-yl}-2,6-dimethoxy-4-(5-methylpyrimidin-2-yl)benzene-1-sulfonamide]
[1]; [5]
  Ki: 1 nM
[2]; [6]
  Ki: 8.5 nM
[3]; [7]
  Ki: 1680 nM

## CCc1cc(Nc2cc3onc(NS(=O)(=O)c4c(OC)cc(-c5ccc(C)nn5)cc4OC)c3cc2OC)[nH]n1 [Example 235, N-{6-[(3-ethyl-1H-pyrazol-5-yl)amino]-5-methoxy-1,2-benzoxazol-3-yl}-2,6-dimethoxy-4-(6-methylpyridazin-3-yl)benzene-1-sulfonamide]
[1]; [5]
  Ki: 0.8 nM
[2]; [6]
  Ki: 6 nM
[3]; [7]
  Ki: 2360 nM

## CCc1cc(Nc2cc3onc(NS(=O)(=O)c4c(OC)cc(-c5ccc(C)cn5)cc4OC)c3cc2OC)[nH]n1 [Example 236, N-{6-[(3-ethyl-1H-pyrazol-5-yl)amino]-5-methoxy-1,2-benzoxazol-3-yl}-2,6-dimethoxy-4-(5-methylpyridin-2-yl)benzene-1-sulfonamide]
[1]; [5]
  Ki: 0.4 nM
[2]; [6]
  Ki: 3.5 nM
[3]; [7]
  Ki: 364 nM

## COc1cc2c(NS(=O)(=O)c3c(OC)cc(N4CCCC4=O)cc3OC)noc2cc1Nc1cc(C2CC2)n[nH]1 [Example 246, N-{6-[(3-cyclopropyl-1H-pyrazol-5-yl)amino]-5-methoxy-1,2-benzoxazol-3-yl}-2,6-dimethoxy-4-(2-oxopyrrolidin-1-yl)benzene-1-sulfonamide]
[1]; [8]
  Ki: 1 nM
[2]; [9]
  Ki: 6.4 nM
[3]; [10]
  Ki: 1840 nM

## COc1cc2c(NS(=O)(=O)c3c(OC)cc(C4CCOCC4)cc3OC)noc2cc1Nc1cc(C2CC2)n[nH]1 [Example 265, N-{6-[(3-cyclopropyl-1 H-pyrazol-5-yl)amino]-5-methoxy-1,2-benzoxazol-3-yl}-2,6-dimethoxy-4-(oxan-4-yl)benzene-1-sulfonamide]
[1]; [8]
  Ki: 0.3 nM
[2]; [9]
  Ki: 2.3 nM
[3]; [10]
  Ki: 918 nM

## COCc1cc(OC)c(S(=O)(=O)Nc2noc3cc(Nc4cc(C5CC5)n[nH]4)c(OC)cc23)c(OC)c1 [Example 270, N-{6-[(3-cyclopropyl-1 H-pyrazol-5-yl)amino]-5-methoxy-1,2-benzoxazol-3-yl}-2,6-dimethoxy-4-(methoxymethyl)benzene-1-sulfonamide]
[1]; [8]
  Ki: 1.3 nM
[2]; [9]
  Ki: 13.5 nM
[3]; [10]
  Ki: 1790 nM

## COc1cc2c(NS(=O)(=O)c3c(OC)cc(C(C)(C)OC)cc3OC)noc2cc1Nc1cc(C2CC2)n[nH]1 [Example 271, N-{6-[(3-cyclopropyl-1H-pyrazol-5-yl)amino]-5-methoxy-1,2-benzoxazol-3-yl}-2,6-dimethoxy-4-(2-methoxypropan-2-yl)benzene-1-sulfonamide]
[1]; [8]
  Ki: 1 nM
[2]; [9]
  Ki: 7 nM
[3]; [10]
  Ki: 1010 nM
